Experimental findings from PubChem BioAssay (NCI) are described below.

Values joined by “and” are separate entries in the source; they are usually repeats but may differ in a detail not shown here. Equal values may be shown once.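 Compound exposure: 48 hours, 5 concentrations, 96-well plates. GI50: concentration for 50% inhibition of growth. Definition used: TGI = concentration required for complete inhibition of growth.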

What all share (test): inhibition of tumour cell growth, NCI panel, 48 h
In assay [1] the test system is ACHN renal.
For assay [2], the system named is TK-10 renal.
Assay [3] deals with SF-539 CNS.
The subject of assay [4] is EKVX NSCLC.
Assay [5] concerns SF-268 CNS.
Assay [6] has as its system HCT-15 colon.
Assay [7] relates to MALME-3M melanoma.
Assay [8] has as its system HCC-2998 colon.
The test system of assay [9] is IGROV1 ovarian.
Assay [10] deals with MDA-N.

For the molecule `Cc1cc2nc(-c3c(N)ncc(C#N)c3-c3ccc(Cl)cc3)[nH]c2cc1C`, the GI50 in [1] was 11.1 µM; in assay [2], 4.67 µM; in [3] it was 2.07 µM; in [4] it was 14.4 µM; in assay [5], 19.8 µM; in assay [6], 30.6 µM. Besides, the figures for the GI50 in assay [7], in assay [8] and in [9] were 14.5 µM, 20.9 µM and 18.7 µM, respectively. For the same molecule, the TGI in [1] was > 100 µM; in assay [2] it was 21.3 µM; in assay [3], 5.78 µM; in assay [4] it was 76.7 µM; in [5], 84.2 µM; in assay [6], > 100 µM. The TGI in assay [7] was 78.8 µM; in assay [8] it was > 100 µM; in [9] it was > 100 µM.
Consider `COC1(OC)C=CC(=O)C=C1`, for which the TGI in assay [1] turned out to be 8.56 µM; in [2] it was 7.67 µM; in [3] it was 11.8 µM; in assay [4], 21.9 µM; in assay [5] it was 16.7 µM; in assay [6] it was 16.9 µM. The TGI in assay [10] was > 36.8 µM; in assay [8], 15.4 µM; in [9], 4.77 µM.
As to `COc1ccc(NC(=O)CC(=O)N2N=C(N(c3ccccc3)c3ccccc3)CC2c2ccccc2)cc1` (stereo unspecified), the TGI in assay [1], in [2], in assay [3], in assay [4], in [5] and in assay [6] was > 100 µM in each case. The TGI in [8] and in [9] was > 100 µM each time.
Regarding `N#C/C(=C1/c2cc([N+](=O)[O-])ccc2-c2c1cc([N+](=O)[O-])cc2[N+](=O)[O-])N1CCCCC1`, the TGI in assay [1], in assay [2], in assay [4], in assay [5], in [6] and in assay [7] was > 100 µM in each case. Further, the TGI in assay [10], in [8] and in assay [9] was > 100 µM each time.
In the case of `CS(=O)(=O)[O-].CS(=O)(=O)[O-].NC1CCCCC1N.[Pt+4]` (stereo unspecified), the GI50 is > 100 µM in [3]; > 100 µM in [4]; > 65.9 µM in [5]; > 100 µM in [6]; > 100 µM in assay [7]; > 100 µM in [8]. The GI50 in assay [9] is > 69.4 µM. Further, the TGI in [3], in assay [4], in assay [5], in assay [6], in assay [7] and in [8] was > 100 µM throughout. The TGI in assay [9] was > 100 µM.
For the molecule `CCN(CC)/[N+]([O-])=N/O`, the TGI in [1], in assay [2], in assay [3], in [4], in assay [5] and in [6] was > 100 µM each time. The TGI in assay [8] and in assay [9] was > 100 µM throughout.
As to `O=C(NCCCCCCO)c1cccc2cc3ccccc3nc12`, the TGI in assay [1] came to 39.2 µM; in [2] it was 34.6 µM; in [3] it was 33.7 µM; in assay [4], 32.8 µM; in [6], 48.6 µM; in [10], 12.9 µM. In addition, the TGI in [9] stood at 35.7 µM.
Turning to `C=C(C)[C@@H]1CC[C@]2(CO)CC[C@]3(C)[C@H](CC[C@@H]4[C@@](C)(CCCN)[C@H](C(=C)C)CC[C@]43C)[C@@H]12`, the GI50 in assay [1] was 1.82 µM; in assay [2], 1.77 µM; in assay [3], 1.63 µM; in [5] it was 1.53 µM; in assay [8] it was 1.79 µM; in [9], 1.76 µM. In addition, the TGI in assay [1] amounted to 3.21 µM; in [2], 3.39 µM; in [3], 2.99 µM; in assay [5], 3.06 µM; in [8] it was 3.3 µM; in assay [9] it was 3.22 µM.
On to `COC(=O)[C@@H]1C=C[C@H](NC(C)=O)C1`, for which the TGI in [2], in [6], in assay [7], in assay [10], in [8] and in assay [9] was > 100 µM each time.
On to `O=C(O)CCSC1=NCCN1`, for which the TGI in [1], in assay [2], in [4], in [5], in assay [6] and in assay [7] was > 100 µM in each case. Also, the TGI in assay [10], in assay [8] and in assay [9] was > 100 µM each time.
For the molecule `CC1(C)[C@@H](OC(N)=O)C=C[C@]2(CO)[C@H]3CC[C@]4(C)[C@@H](c5ccc(=O)oc5)[C@@H](Cl)C[C@]4(O)C3=CC[C@@H]12`, the GI50 is < 0.0001 µM in assay [1]; < 0.0001 µM in assay [4]; < 0.0001 µM in [5]; 0.00481 µM in [6]; 0.00239 µM in assay [7]; 0.0113 µM in assay [8]. The GI50 in [9] is 0.00313 µM and 0.0025 µM. Besides, the TGI in assay [1] was found to be 0.00262 µM; in [4], 0.00806 µM; in assay [5], 0.00254 µM; in assay [6], 0.0258 µM; in [7], 0.00524 µM; in assay [8] it was 0.0776 µM. In addition, the TGI in assay [9] is 0.0284 µM and 0.0829 µM.
`CCOC(=O)CCC(NC(=O)OCc1ccccc1)C(=O)NC(CCC(=O)OCC)C(=O)NC(CCC(=O)OCC)C(=O)NNC(=O)OC(C)(C)C` (stereo unspecified): the TGI in assay [1], in assay [2], in assay [4], in assay [6], in assay [7] and in assay [10] was > 100 µM each time. Besides, the TGI in [8] and in assay [9] was > 100 µM in each case.
For `O=NN1CCCS1(=O)=O`, the TGI in [1], in assay [2], in [3], in assay [4], in assay [5] and in assay [6] was > 100 µM in each case. The TGI in [7], in assay [8] and in assay [9] was > 100 µM in each case.
